{"source": "patent US20100227853A1", "about": "“INHIBITORS OF CYCLIC AMP PHOSPHODIESTERASES” (Trustees of Boston College, priority 2008, published 2010)", "key": {"PDE4D3": {"biological_target": "T1, PDE4D3 (Homo sapiens, UniProt Q08499)", "T1 construct": "targets used in the assays are full-length proteins (as opposed to simply the catalytic domain); expressed in transfected cells; host or cells: Schizosaccharomyces pombe, PDE gene integrated in place of cgs2", "T1 sequence (Q08499 1-673 isoform Q08499-2)": "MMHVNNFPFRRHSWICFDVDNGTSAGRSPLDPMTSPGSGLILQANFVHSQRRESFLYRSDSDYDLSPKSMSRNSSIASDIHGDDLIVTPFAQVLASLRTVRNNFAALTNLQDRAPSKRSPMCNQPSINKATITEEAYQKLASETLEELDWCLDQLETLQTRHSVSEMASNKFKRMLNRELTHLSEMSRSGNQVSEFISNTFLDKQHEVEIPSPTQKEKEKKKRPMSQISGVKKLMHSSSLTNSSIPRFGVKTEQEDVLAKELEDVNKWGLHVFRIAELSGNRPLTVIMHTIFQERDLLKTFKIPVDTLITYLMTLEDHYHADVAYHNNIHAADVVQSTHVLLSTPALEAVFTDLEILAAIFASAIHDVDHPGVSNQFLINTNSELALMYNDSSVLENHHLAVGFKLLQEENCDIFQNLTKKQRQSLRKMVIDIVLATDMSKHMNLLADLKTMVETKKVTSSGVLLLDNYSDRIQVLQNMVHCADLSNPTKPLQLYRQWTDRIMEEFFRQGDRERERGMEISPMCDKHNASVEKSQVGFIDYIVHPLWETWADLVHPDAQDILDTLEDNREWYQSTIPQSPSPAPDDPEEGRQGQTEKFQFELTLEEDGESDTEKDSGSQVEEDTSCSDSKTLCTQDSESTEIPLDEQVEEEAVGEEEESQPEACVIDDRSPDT", "assay": "5FOA growth assay in fission yeast strain expressing PDE4D3", "assay_type": "cell-based", "conditions": "for EC50: OD600 0.6, read-out: ED50 for 5FOA growth assays, PDE4D3", "procedure": "Cells were pregrown in EMM medium [MP Biomedicals (Solon, Ohio), 3% glucose, filter-sterilized to avoid carmelization, which would introduce variability into the optical density of the medium] containing from 0 mM to 2.5 mM cAMP (or either 0.5 mM or 1.0 mM cGMP). This was to repress expression of the fbp1-ura4 reporter prior to exposure of cells to 5FOA medium. Cells were grown at 30° C. to exponential phase (approximately 10^7 cells/ml). […] Starting cell concentrations ranged from 0.5×10^5 to 4×10^5 cells/ml depending on the screening strain. […] Other positive control dishes contained 5 mM cAMP in the 5FOA medium for PDEs that lack appropriate control compounds. Cultures were grown for 48 hours at 30° C., sealed in an airtight container with moist paper towels to prevent evaporation. Optical densities (OD600) of cultures were measured using a microplate reader. Bioinformatic analysis of the results to determine composite Z scores was performed as previously described (1, 3)."}, "[1]": {"system": "PDE4A, PDE4B, PDE4D, PDE7A, PDE7B, PDE8A, PDE3A", "assay": "Summary of PDE inhibitor profile", "parameters": "key to inhibitor class, Table 15: (1): Strong PDE4A5 inhibitor; (2): Strong PDE4A, 4B inhibitor; Moderate PDE4D inhibitor; (3): Strong PDE4A. 4B inhibitor; (4): Strong PDE4A, 4B, PDE7A inhibitor: Weak PDE4D inhibitor; key to inhibitor class, Table 16: (1): Weak PDE7A inhibitor; (2): Strong PDE7A inhibitor; (3): Lillte/no activity under conditions used; (4): Weak PDE4A inhibitor"}, "PDE4A5": {"biological_target": "T2, PDE4A5 (Rattus norvegicus, UniProt P54748)", "T2 construct": "targets used in the assays are full-length proteins (as opposed to simply the catalytic domain); expressed in transfected cells; host or cells: Schizosaccharomyces pombe, PDE gene integrated in place of cgs2", "T2 sequence (P54748 1-844)": "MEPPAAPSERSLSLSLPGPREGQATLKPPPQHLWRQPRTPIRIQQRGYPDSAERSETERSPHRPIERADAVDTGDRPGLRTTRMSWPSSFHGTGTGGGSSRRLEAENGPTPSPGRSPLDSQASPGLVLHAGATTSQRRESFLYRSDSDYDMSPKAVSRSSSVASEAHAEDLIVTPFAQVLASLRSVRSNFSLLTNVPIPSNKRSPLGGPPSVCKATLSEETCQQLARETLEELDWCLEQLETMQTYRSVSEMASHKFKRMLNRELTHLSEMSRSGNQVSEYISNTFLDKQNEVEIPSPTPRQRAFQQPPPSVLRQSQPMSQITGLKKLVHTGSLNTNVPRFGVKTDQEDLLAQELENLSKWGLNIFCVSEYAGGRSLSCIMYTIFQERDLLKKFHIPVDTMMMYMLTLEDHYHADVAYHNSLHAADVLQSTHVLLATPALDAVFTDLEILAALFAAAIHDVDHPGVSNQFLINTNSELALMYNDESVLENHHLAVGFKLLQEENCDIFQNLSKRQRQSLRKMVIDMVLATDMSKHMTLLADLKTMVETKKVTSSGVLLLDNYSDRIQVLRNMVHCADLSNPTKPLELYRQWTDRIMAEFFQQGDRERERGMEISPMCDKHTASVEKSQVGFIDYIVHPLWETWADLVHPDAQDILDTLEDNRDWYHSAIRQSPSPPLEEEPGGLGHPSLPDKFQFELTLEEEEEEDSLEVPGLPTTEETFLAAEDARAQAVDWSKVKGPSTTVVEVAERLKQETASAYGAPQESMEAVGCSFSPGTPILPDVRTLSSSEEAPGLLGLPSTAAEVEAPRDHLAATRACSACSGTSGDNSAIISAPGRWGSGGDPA", "assay": "5FOA growth assay in fission yeast strain expressing PDE4A5", "assay_type": "cell-based", "conditions": "for Composite Z score, PDE4A5: high throughput 5FOA growth screen", "procedure": "High throughput drug screens were carried out at the Broad Institute's Chemical Biology Program screening facility (Broad Institute, Cambridge, Mass.). Depending upon the strain, cultures were pregrown to exponential phase in EMM complete medium containing from 0.5 to 2.5 mM cAMP to repress fbp1-ura4 transcription. Cells were collected by centrifugation, resuspended in 5FOA medium, and 25 μl were transferred to 384-well microtiter dishes (untreated, with flat clear bottoms) that had been pre-filled with 25 μl 5FOA medium and pre-pinned with 100 nl of compounds (stock solutions were generally 10 mM) from a subset of the Prestwick Bioactive and the Microsource Spectrum compound libraries. Starting cell concentrations ranged from 0.5×10^5 to 4×10^5 cells/ml depending on the screening strain. […] Other positive control dishes contained 5 mM cAMP in the 5FOA medium. Cultures were grown for 48 hours at 30° C., sealed in an airtight container with moist paper towels to prevent evaporation. Optical densities (OD600) of cultures were measured using a microplate reader. Bioinformatic analysis of the results to determine composite Z scores was performed as previously described^30, 31.\nCells were pregrown in EMM medium [MP Biomedicals (Solon, Ohio), 3% glucose, filter-sterilized to avoid carmelization, which would introduce variability into the optical density of the medium] containing from 0 mM to 2.5 mM cAMP (or either 0.5 mM or 1.0 mM cGMP). This was to repress expression of the fbp1-ura4 reporter prior to exposure of cells to 5FOA medium. Cells were grown at 30° C. to exponential phase (approximately 10^7 cells/ml). Cells were collected by centrifugation and resuspended in 5FOA medium, and 25 μl were transferred to 384-well microtiter dishes (untreated, with flat clear bottoms) that had been pre-filled with 25 μl 5FOA medium and pre-pinned with 100 nl of compounds (stock solutions were generally 10 mM). Starting cell concentrations ranged from 0.5×10^5 to 4×10^5 cells/ml depending on the screening strain. […] Other positive control dishes contained 5 mM cAMP in the 5FOA medium for PDEs that lack appropriate control compounds. Cultures were grown for 48 hours at 30° C., sealed in an airtight container with moist paper towels to prevent evaporation. Optical densities (OD600) of cultures were measured using a microplate reader. Bioinformatic analysis of the results to determine composite Z scores was performed as previously described (1, 3)."}, "U937 cells": {"system": "U937 cells", "assay": "TNF alpha release by LPS-treated U937 cells", "assay_type": "cell-based", "conditions": "for TNF alpha, % vehicle control: 10 uM cmpd, 0 uM BC30"}, "PDE4D2": {"biological_target": "T3, PDE4D2 (Homo sapiens, UniProt Q08499)", "T3 construct": "targets used in the assays are full-length proteins (as opposed to simply the catalytic domain); expressed in transfected cells; host or cells: Schizosaccharomyces pombe", "T3 sequence (Q08499 303-809)": "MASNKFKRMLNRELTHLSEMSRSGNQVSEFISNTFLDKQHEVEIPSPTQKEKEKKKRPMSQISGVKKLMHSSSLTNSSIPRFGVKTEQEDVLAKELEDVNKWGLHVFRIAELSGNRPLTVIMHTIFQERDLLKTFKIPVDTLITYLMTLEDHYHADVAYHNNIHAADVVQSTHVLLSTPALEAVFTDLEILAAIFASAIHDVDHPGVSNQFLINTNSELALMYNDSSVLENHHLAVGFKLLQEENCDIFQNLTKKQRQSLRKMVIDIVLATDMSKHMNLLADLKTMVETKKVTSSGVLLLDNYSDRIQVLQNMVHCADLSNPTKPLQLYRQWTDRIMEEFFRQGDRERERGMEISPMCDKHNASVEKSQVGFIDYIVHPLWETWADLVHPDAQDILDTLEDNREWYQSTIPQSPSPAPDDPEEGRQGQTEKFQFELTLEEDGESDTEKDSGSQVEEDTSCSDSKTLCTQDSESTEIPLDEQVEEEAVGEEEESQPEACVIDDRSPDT", "assay": "cAMP response in yeast strain expressing PDE4D2", "assay_type": "cell-based"}}, "note": "“Also recorded” adds a separate entry of the source."}
{"smiles": "CCC1CCc2c(sc3ncnc(N4CCOCC4)c23)C1", "note": "(centres unmarked) [BC33]", "values": [{"measurement": "EC50", "setting": "PDE4D3", "result": 33, "unit": "µM"}, {"measurement": "PDE inhibitor profile, in words", "setting": "[1]", "result": "PDE4 inhibitor. It also shows some activity on PDE4D3 (but not 4D2)"}, {"measurement": "Composite Z score, PDE4A5", "setting": "PDE4A5", "result": 36.026}]}
{"smiles": "CCN(CC)c1ncnc2sc3c(c12)CCCC3", "note": "[BC44]", "values": [{"measurement": "EC50", "setting": "PDE4D3", "result": 3.3, "unit": "µM"}, {"measurement": "PDE inhibitor profile, in words", "setting": "[1]", "result": "very good PDE4 and PDE7 inhibitor, with low PDE4D inhibition"}, {"measurement": "Composite Z score, PDE4A5", "setting": "PDE4A5", "result": 63.222}]}
{"smiles": "Cc1c(C(=O)Nc2ccc(F)cc2F)sc2ncnc(N3CCC(C)CC3)c12", "note": "[BC58]", "values": [{"measurement": "TNF alpha reduction, conclusion in words", "setting": "U937 cells", "result": "good PDE4 inhibitor activity"}, {"measurement": "PDE inhibitor profile, in words", "setting": "[1]", "result": "effective PDE4A/4B inhibitor that exhibits limited/essentially no inhibition of PDE4D; also recorded: PDE4A/4B-specific inhibitor"}, {"measurement": "Composite Z score, PDE4A5", "setting": "PDE4A5", "result": 154.72}]}
{"smiles": "Cc1sc2ncnc(Nc3ccccc3)c2c1C", "note": "[BC64]", "values": [{"measurement": "EC50", "setting": "PDE4D3", "result": "> 200", "unit": "µM"}, {"measurement": "PDE inhibitor profile, in words", "setting": "[1]", "result": "moderate PDE7 inhibitor"}]}
{"smiles": "COC(=O)C1=C(C)N(C2CCCCC2)C(=O)/C1=C\\c1cccs1", "note": "[Compound 22]", "values": [{"measurement": "2 Assay (2 uM), 4D3", "setting": "PDE4D3", "result": 42.32}, {"measurement": "cAMP Response (% rolipram), 4D2", "setting": "PDE4D2", "result": "ND ND ND 34.00 ND % rolipram"}, {"measurement": "inhibitor class, Table 15", "setting": "[1]", "result": "22 (4)"}, {"measurement": "2 Assay (2 uM), 4A5", "setting": "PDE4A5", "result": 13.66}, {"measurement": "1 Assay (20 uM) 4A5", "setting": "PDE4A5", "result": "−0.06"}]}
{"smiles": "COC(=O)C1=C(C)N(c2ccccc2Cl)C(=O)/C1=C\\c1cccs1", "note": "[Compound 27]", "values": [{"measurement": "TNF alpha, % vehicle control", "setting": "U937 cells; after 3 h.", "result": 75.3, "unit": "%"}, {"measurement": "TNF alpha, % vehicle control", "setting": "U937 cells; after 20 h.", "result": 78.3, "unit": "%"}, {"measurement": "2 Assay (2 uM), 4D3", "setting": "PDE4D3", "result": 0.00}, {"measurement": "cAMP Response (% rolipram), 4D2", "setting": "PDE4D2", "result": "ND ND ND 11.00 ND % rolipram"}, {"measurement": "inhibitor class, Table 15", "setting": "[1]", "result": "27 (3)"}, {"measurement": "2 Assay (2 uM), 4A5", "setting": "PDE4A5", "result": 12.63}, {"measurement": "1 Assay (20 uM) 4A5", "setting": "PDE4A5", "result": 65.67}]}
{"smiles": "N#Cc1sc2sc(C#N)c(-c3ccco3)c2c1N", "note": "[Compound 30]", "values": [{"measurement": "TNF", "setting": "U937 cells; 3 HOURS", "result": 3317, "unit": "pg/mL"}, {"measurement": "TNF, % EtOH cntrl", "setting": "U937 cells; 3 HOURS", "result": 68.7, "unit": "%"}, {"measurement": "TNF", "setting": "U937 cells; 20 HOURS", "result": 7481, "unit": "pg/mL"}, {"measurement": "TNF, % EtOH cntrl", "setting": "U937 cells; 20 HOURS", "result": 54.7, "unit": "%"}, {"measurement": "cAMP Response, 4D2", "setting": "PDE4D2; Table 16, unit not given", "result": "ND ND ND 7.5 ND"}, {"measurement": "inhibitor class, Table 16", "setting": "[1]", "result": "30 KM03472 (2)"}, {"measurement": "2 Assay (2 uM), 4A5", "setting": "PDE4A5", "result": 2.79}, {"measurement": "1 Assay (20 uM) 4A5", "setting": "PDE4A5", "result": 2.14}]}
{"smiles": "COc1ccc2c(c1)[C@@]1(C)CCC[C@](C)(CO)C1CC2", "note": "(some centres unmarked) [Compound 2067M03]", "values": [{"measurement": "2 Assay (2 uM), 4D3", "setting": "PDE4D3; PDE 4D3", "result": "ND 1.24 ND ND ND"}, {"measurement": "2 Assay (2 uM), 4A5", "setting": "PDE4A5; PDE 4A5", "result": 8.43}, {"measurement": "1 Assay (20 uM) 4A5", "setting": "PDE4A5; PDE 4A5", "result": 16.94}]}
{"smiles": "Cc1ccc2c(c1)CCC1CC(=O)CC[C@]21C", "note": "(some centres unmarked) [Compound 2158J12]", "values": [{"measurement": "2 Assay (2 uM), 4D3", "setting": "PDE4D3; PDE 4D3", "result": 40.17}, {"measurement": "1 Assay (20 uM) 4D3", "setting": "PDE4D3; 20 uM, PDE 4D3", "result": 14.84}, {"measurement": "2 Assay (2 uM), 4A5", "setting": "PDE4A5; PDE 4A5", "result": 7.00}, {"measurement": "1 Assay (20 uM) 4A5", "setting": "PDE4A5; PDE 4A5", "result": 113.27}]}
